Patent publication US20140364454A1, “METAL-CHELATING COMPOUNDS HAVING AT LEAST ONE POLYAMINO CHAIN” (UNIVERSITE DE RENNES I, priority 2011, published 2014)
Where two headings read alike, the source gives them in different places.

Columns and labels:
Caco-2 cells [1] = test: LDH release of Caco-2 cells; assay type: cell-based, human; conditions: for % LDH/control 10 μM: Caco-2 J4, 10 μM; for % LDH/control 100 μM: Caco-2 J4, 100 μM
Procedure: (§1) The action of Quilamines on the cell viability was analyzed on enterocyte cells of the Caco-2 tumor cell line derived from human colon carcinoma and compared with the action of ICL670 in the presence or absence of exogenous iron, after activation (DFMO) or competitive inhibition by spermidine, of the PTS. The operating conditions used are identical to those used for CHO/CHO-MG and HepG2 cells.
As in the case of the other cell lines in proliferative phase presented here above, the dose-effect curves of the action of the Quilamines on the number of viable cells (number of nuclei) are biphase curves with a cytostatic constituent for concentration values of below 30 micromoles per liter and a cytotoxic constituent with release of LDH for concentration values above 30 micromoles per liter. Only this second cytotoxic constituent is observed when the cells of the Caco-2 cell line are treated after confluence (stopping of the proliferation).

Caco-2 cells [2] = test: Cell viability of proliferating Caco-2 cells (number of nuclei); assay type: cell-based, human; conditions: for Constituent 2 (10-100 μM) % cell / Constituent 1 (1-10 μM) % cell: Caco-2 J4, no exogenous iron
Procedure: as §1
The results for the measurement of the anti-proliferative effect of Quilamines, and of ICL670 on the proliferating cells (cytostatic constituent) when there is no exogenous iron have been listed in the table 4 below.

[3] = test system: wild cell line (CHO) of hamster ovarian cells; test: Anti-proliferative effect on CHO cells, counting of cell nuclei (Hoechst 33342); assay type: cell-based; conditions: read-out: IC50 CHO
Procedure: (§2) The in vitro efficacy of different Quilamines was tested on a wild cell line (CHO) of hamster ovarian cells having PTS and a mutant cell line CHO-MG without PTS. The two cell types CHO and CHO-MG were treated, 24 hours after being seeded in 96-well microplates, by concentrations of different Quilamines ranging from 0.1 to 400 micromoles per liter. The cytostatic (anti-proliferative) effects and cytotoxic effects of Quilamine after 72 hours' treatment of the cells were assessed respectively by counting cell nuclei after DNA marking by the Hoechst 33342 fluorescent intercalant dye and by analysis of membrane damage detected by the dosing of the lactate dehydrogenase activity (LHD) in the supernatants.
The IC50 inhibitor concentration corresponding to the concentration in Quilamines enables the inhibition at 50% of the cell proliferation was deduced from the dose-effect curves of numeration of the nuclei of the living cells on the CHO and CHO-MG cell lines. […] The lower the value of IC50, the greater the efficiency of the anti-proliferative effect of the tested chelators.
(§3) A comparison was made of the cytostatic or anti-proliferative action and the cytotoxic action for 72 h of treatment by Quilamine HQ1-44 and 8-hydroxyquinoline and ICL670, on the CHO cell lines in the presence and without the presence of exogenous iron, in the form of Fe(III) citrate in a concentration of 20 micromoles per liter. The results obtained are shown in FIG. 4, FIG. 4A relating to the results on cell viability and FIG. 4B relating to the results on cell toxicity.

CHO cells = test: Cytotoxic effect on CHO cells, LDH release in supernatants; conditions: CHO
Procedure: as §2, §3

[4] = test system: mutant cell line CHO-MG without PTS; test: Anti-proliferative effect on CHO-MG cells without PTS, counting of cell nuclei; assay type: cell-based, hamster; conditions: for IC50: 72 h treatment; for Ratio IC50 (CHO-MG/CHO): selectivity of recognition by the PTS
Text: The IC50 inhibitor concentration corresponding to the concentration in Quilamines enables the inhibition at 50% of the cell proliferation was deduced from the dose-effect curves of numeration of the nuclei of the living cells on the CHO and CHO-MG cell lines. These dose-effect curves are sometimes bi-phase curves as in the case of Quilamine HQ1-44 which has an anti-proliferative constituent (without concomitant release of LDH in supernatant) in the range of concentrations of 0.4 to 3 micromoles per liter and a second cytotoxic constituent accompanied by membrane toxicity expressed by the release of LDH for concentrations of over […]. The lower the value of IC50, the greater the efficiency of the anti-proliferative effect of the tested chelators.
Furthermore, the ratio of the IC50 inhibitor concentrations found for the CHO-MG and the CHO cell lines (Ratio IC50 (CHO-MG/CHO)) was computed for several Quilamines according to the invention. This ratio makes it possible to estimate the selectivity of recognition of the different chelators by the PTS: the higher the ratio, the more clearly is the chelator recognized by the PTS. When this ratio is close to 1, the tested chelator is not recognized or is little recognized by the PTS.

[5] = Potentiometry: stability constants and pFe3+ of the iron complex; assay type: physicochemical; conditions: pH 7.4
Procedure: The complexation affinity of Quilamine with the metal ion in the organism reflects the chelating capacity or chelating power of Quilamine. This affinity can be assessed by measuring the value of pW corresponding to −log of the concentration in free metal ion W, i.e. non-complexated by the Quilamine for a ratio of respective concentrations of Quilamine (10 micromoles per liter) and metal ion (1 micromole per liter) equal to 10, at 25° C. and pH 7.4. The higher the value of pW, the greater the affinity of Quilamine with metal ion. The affinity of Quilamine with iron in its ferric form (Fe(III)) and its ferrous form (Fe(II)) is measured respectively by pFe^3+ and pFe^2+ at physiological pH (pH=7.4), at 25° C.
Potentiometry measurements were made in thermostated titration cells at 25±0.1° C., using a Metrohm 702 SM Titrino titrator connected to a Metrohm 6.0233.100. The ligand solution is prepared in a concentration of ˜1.5×10^−3 moles per liter, the solution of Fe^3+ is made from FeCl3 and titrated by complexation with a standard solution of EDTA (ethylenediaminetetracetic acid). The sample for the measurement contained approximately 0.03 millimoles per liter of ligand in a volume of 30 ml where the ionic strength is maintained at 0.1 mole per liter in using KNO3 as a support electrolyte. During the titrations, Fe^3+ is added to 0.45 or 0.9 equivalents of ligand. Each titration consists of 150-200 equilibrium points with pH varying from 2.0 to 11.5, and is repeated at least twice. The thermodynamic constants are computed with the software […] and the speciation diagram of the species is done by the Hyss program.

[6] = pH 7.4; stated reference values; cited from earlier work
HepG2 cells = test: Anti-proliferative effect on HepG2 cells (nuclei count or SDH activity); assay type: cell-based, human; conditions: 72 h; for IC50: HepG2, absence of exogenous iron, read-out: IC50 associated with the cytostatic effect; for % of HepG2 cells concerned by the anti-proliferative effect: absence of exogenous iron
Text: The majority of the Quilamines, like ICL670, show biphase dose-effect curves in the absence of exogenous iron, with an anti-proliferative constituent for concentration values of 1 to 10 micromoles per liter and a cytotoxic constituent associated with a release of LDH for concentration values of over 10 micromoles per liter. The percentage of HepG2 cells concerned by the anti-proliferative effect and the values of IC50 associated with this cytostatic effect in the absence of exogenous iron were listed in the table 4 below.
The implication of PTS in the cytostatic and cytotoxic action of Quilamines was analyzed in proliferating HepG2 hepatocyte tumor cells after activation of PTS or competitive inhibition of PTS by spermidine, a polyamine naturally present in the organism and most efficaciously captured by the PTS. The conditions of treatment by Quilamines are identical to those described in paragraph III-1.
Inhibiting ornithine decarboxylase (ODC), the key enzyme in the biosynthesis of polyamines, causes a depletion of intra-cell polyamines and an activation of PTS which enables the deficiency to be met. This activation of PTS is done by means of the ODC inhibitor, alpha-difluoromethyl ornithine (DFMO).
The competitive inhibition of PTS by spermidine is prompted by the co-treatment of the cells by the Quilamines in the presence of spermidine, in a concentration of 50 micromoles per liter.

[7] = Calcein test: shift of iron(III) complexated with calcein; assay type: physicochemical; conditions: pH 7.4
Procedure: The Quilamines HQ1-34, HQ1-344, HQ1-343, HQ1-33, HQ1-333, HQ1-44, HQ1-43, HQ1-444, HQ1-443 according to the invention were synthesized and tested. For each Quilamine, its capacity to shift iron (III) complexated with calcein was tested. Calcein is a fluorescent molecule which has a pFe3+ value of 20.3 with pH 7.4 close to the value measured for ligands of low molecular weight present in human or animal cells and complexating the labile iron pool, such as citrate which has a pFe^3+ value of 19.3 with pH of 7.4 (LIP). The fluorescence of calcein is detected on a microplate, in a concentration of 0.1 micromole per liter, in solution in a HEPES buffer (4-(2-hydroxyethyl)-1-piperazine ethane sulfonic acid) with pH 7.4, in a Fusion (Packard) type a microplate fluorescence reader, under excitation at 450 nanometers and analysis of the fluorescence emission at 515 nanometers. The fluorescence of calcein is extinguished in the presence of iron(III) in the form of hydrochloride (chloride) with a concentration of 1 micromole per liter. The addition of Quilamine in different concentrations ranging from 0.01 to 40 micromoles per liter prompts the shifting of iron(III) complexated with calcein towards Quilamine, resulting in a restoration of the fluorescence of the calcein. The dose-effect curves expressing the percentage of restoration of fluorescence of calcein (relative to the fluorescence of the free molecule in the absence of iron), for each Quilamine concentration, makes it possible to deduce the Quilamine concentration prompting the 50% shift of Fe(III) from calcein and the restoration of its associated fluorescence (CE50). These concentration values CE50 are inversely proportional to the chelating capacity of the chelators and the aptitude to mobilize iron from the LIP of the organism.
Comparatively, measurements were made, under the same conditions, of the efficacy in shifting iron(III) complexated with calcein of the two prior-art chelators, 8-hydroxyquinoline and O-trensox, the latter being currently considered to be the chelator having the greatest affinity for iron.

[8] = Caco-2 J4, cytostatic constituent, no exogenous iron, read-out: Constituent 1 (1-10 μM) IC50
[9] = Caco-2 J4, cytotoxic constituent, no exogenous iron, read-out: Constituent 2 (10-100 μM) IC50
[10] = 72 h treatment, no exogenous iron

| Structure (SMILES) | % LDH/control 10 μM (Caco-2 cells [1]) | % LDH/control 100 μM (Caco-2 cells [1]) | Constituent 2 (10-100 μM) % cell (Caco-2 cells [2]) | IC50 (Caco-2 cells [2]; Homo sapiens, Caco-2, read-out: Constituent 2 (10-100 μM) IC50) | IC50 ([3]; CHO, 72 h) | influence of exogenous iron on the cytotoxic effect (CHO cells; Fe(III) citrate 20 micromoles per liter) | chelator concentration giving cytotoxic effect with release of LDH (CHO cells; absence of exogenous iron) | IC50 ([4]; CHO-MG) | Ratio IC50 (CHO-MG/CHO) [4] | pFe3+ [5] | pFe3+ [6] | IC50 (Caco-2 cells [2]; [8]) | IC50 (Caco-2 cells [2]; [9]) | Constituent 1 (1-10 μM) % cell (Caco-2 cells [2]) | IC50 (HepG2 cells) | % of HepG2 cells concerned by the anti-proliferative effect (HepG2 cells) | chelating capacity of HQ1-3 type compared with HQ1-4 type Quilamines [7] | IC50 [3, 10] | IC50 [4] |
| --- | --- | --- | --- | --- | --- | --- | --- | --- | --- | --- | --- | --- | --- | --- | --- | --- | --- | --- | --- |
| Oc1cccc2cccnc12 [8-hydroxyquinoline, reference compound] | 281% | 353% | 100% | 5 µM | 5 µM | no modification | greater than or equal to 5 micromoles per liter | 10.5 µM | 2 | 20.6 | – | – | – | – | – | – | – | – | – |
| O=C(O)CN(CC(=O)O)Cc1cc2c(cc1O)Oc1cc(O)c(CN(CC(=O)O)CC(=O)O)cc1C21OC(=O)c2ccccc21 [Calcein, reference compound] | – | – | – | – | – | – | – | – | – | – | 20.3 | – | – | – | – | – | – | – | – |
| NCCCNCCCNCc1ccc2cccc(O)c2n1 [HQ1-33] | 118% | 261% | 60% | – | – | – | – | – | 21 | – | – | 0.8 µM | 37 µM | 40% | 1.5 µM | 10% | better chelating capacity | 5.7 µM | 118 µM |
| NCCCNCCCNCCCNCc1ccc2cccc(O)c2n1 [HQ1-333] | 112% | 169% | 80% | – | – | – | – | – | 18 | – | – | 3 µM | 60 µM | 20% | 1 µM | 12.5% | better chelating capacity | 15.1 µM | 277 µM |
| O=C(O)CC(O)(CC(=O)O)C(=O)O [citrate] | – | – | – | – | – | – | – | – | – | – | 19.3 | – | – | – | – | – | – | – | – |
